The record followed here is US4837333A, “Substituted alkylidene imidazoles” (G. D. Searle & Co., priority 1987, dated 1989).

SMILES strings stand for the structures.

In one assay the target is T1, thromboxane synthetase (Homo sapiens, UniProt P24557).
T1 construct: The citrated blood was centrifuged at 160 g for 10 mins. at 22° C. to obtain platelet rich plasma (prp); endogenous in cells; host or cells: human platelets in citrated platelet rich plasma from healthy male donors
T1 sequence (P24557 1-533): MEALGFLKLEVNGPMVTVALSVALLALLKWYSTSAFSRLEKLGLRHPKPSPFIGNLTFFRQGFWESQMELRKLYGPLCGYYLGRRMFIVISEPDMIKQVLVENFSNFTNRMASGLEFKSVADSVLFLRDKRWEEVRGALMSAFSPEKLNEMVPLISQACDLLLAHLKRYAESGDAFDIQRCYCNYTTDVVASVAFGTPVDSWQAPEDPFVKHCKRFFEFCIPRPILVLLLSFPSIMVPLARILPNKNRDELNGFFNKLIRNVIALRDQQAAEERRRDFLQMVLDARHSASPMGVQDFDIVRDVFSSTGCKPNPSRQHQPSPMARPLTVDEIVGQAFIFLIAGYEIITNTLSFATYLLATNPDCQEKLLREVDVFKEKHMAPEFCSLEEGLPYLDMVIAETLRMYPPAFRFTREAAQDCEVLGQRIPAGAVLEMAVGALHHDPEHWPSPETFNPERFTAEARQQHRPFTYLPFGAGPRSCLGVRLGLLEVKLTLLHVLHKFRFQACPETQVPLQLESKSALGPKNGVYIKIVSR
As to the kind of experiment: Thromboxane production in Human Platelet Rich Plasma (collagen-stimulated, TxB2 radioimmunoassay). As to conditions: 10 min. incubation, collagen 20 μg/ml, 37° C., read-out: ACTIVITY (IC50 × 10^6 M), inhibition of collagen-induced TxB2 generation. Type of assay: cell-based. On the procedure: (i) inhibition of the generation of thromboxane A2 as determined by radioimmunoassay of its stable metabolite, thromboxane B2 (New England Nuclear, Thromboxane B2 [^3 H] RIA kit, Catalogue No. NEK 007); and
Various compounds of the present invention were evaluated utilizing an in vitro radioimmunoassay as described in the following Example in order to determine inhibition of thromboxane production.
Thromboxane production in Human Platelet Rich Plasma
(a) Platelet rich plasma (prp) preparation
Human venous blood was collected from healthy male donors, who had denied any medication during the previous 14 days. Nine volumes of blood were mixed with one volume of 3.24% trisodium citrate. The citrated blood was centrifuged at 160 g for 10 mins. at 22° C. to obtain platelet rich plasma (prp). The platelets were then counted on a Coulter counter, and the platelet count was adjusted to 200,000 per μl with plasma.
(b) Thromboxane generation
The prp was then dispensed as aliquots into micro-Eppendorf tubes, maintained at 37° C. in a dry bath. The compound to be evaluated was dissolved either in saline, ethanol, or dimethylsulphoxide, and added in duplicate to the prp aliquots to produce a final concentration in the range of 0.1-30 μg/ml. When ethanol or dimethylsulphoxide was used to dissolve the compound, triplicate controls containing the same percentage of ethanol or dimethyl sulphoxide as the test compound was made. The final concentration of organic solvent was never greater than 0.1%, which has been determined to have no effect on TxB2 generation.
Following a 10 min. incubation withtest compounds or controls, collagen was added to the tubes containing the test compounds to produce a final concentration of 20 μg/ml. The tubes were then whirly-mixed for 15 seconds and replaced in the dry bath for a further 10 minutes. Saline was added to the tubes containing the controls, in lieu of collagen. The reaction was then stopped by rapid centrifugation (15000 g for 3 mins). The plasma was removed and frozen at -29° C. until assayed.
(c) Assay of Thromboxane B2
Aliquots (100 μl) of thromboxane TxB2 (plasma extract or standards 50 to 10,000 pg/ml), [^3 H]-TxB2 (approximately 15,000 dpm) and anti-TxB2 antiserum (0.5 μg/100 μl) were combined in […] phosphate buffer+0.1% gelatin+thimerosal (pH 6.8) were incubated for 16 hours at 4° C. The free and protein bound [^3 H]-TxB2 were separated by absorption onto activated charcoal followed by centrifugation. 1.0 ml of the supernatant was added to an aqueous scintillation fluid, and the radioactivity present was counted in a liquid scintillation counter. The binding of [^3 H]-TxB2 in the absence of added TxB2 was approximately 55%. The minimum concentration of TxB2 to be detected accurately in the plasma was 50 pg.ml. Cross reactivity with other prostaglandins was less than 0.005% except with PGD2 wherein the cross reactivity was 1%.
The plasma samples were initially assayed to give approximation of TxB2 content. The plasma was then appropriately diluted and re-assayed in duplicate to give final values.
The amount of TxB2 generated by collagen was calculated by subtracting mean values obtained for the saline stimulated platelets from the mean values obtained from the collagen stimulated platelets. The amount of TxB2 generated in the presence of each concentration of test compound was expressed as a % of control and dose response curves were constructed to determine the concentration of test compound which produced 50% inhibition.

In assay [1] the test system is Thromboxane Formation (plasma TXB2). Description: Whole Blood Aggregation and Thromboxane Formation In Vivo: Guinea Pig (plasma TXB2 by RIA). The conditions noted are these: oral (dose not given), ex vivo collagen-stimulated citrated whole blood, normalized to platelet count. On the procedure: Whole Blood Aggregation and Thromboxane Formation In Vivo: Guinea Pig
All guinea pigs (albino male Dunkin-Bartley, 300-350 g) were fasted overnight before use in the test. The test compound was administered by oral dosing needle to conscious animals. All test compounds, if not water soluble, were administered formulated in a 50% PEG 400/50% carboxymethylcellulose mixture as solution or suspension. Oral dose volumes were 0.1 ml per 100 g body weight.
Animals were anaesthetized with pentabarbitone sodium (60 mg/kg) given intraperitoneally approximately 10 minutes before the bleed time. Once surgically anaesthetized, the peritoneal cavity was opened, and 4.5 ml blood was drawn into a syringe containing 0.5 ml 3.0% trisodium citrate (9:1 v/v) from the abdominal aorta via a 21/23 gauge butterfly needle. The blood was gently mixed with the citrate in the syringe, and transferred to a screwcap plastic tube. Animals were dosed and bled at one hour intervals.
Aggregation of the citrated guinea pig whole blood was carried out within 1-2 hours of bleeding, using standard whole blood aggregometry and counting technique. Aliquots (0.55 ml) of citrated whole blood were heated to 37° C. and stirred at 1000 RPM in an aggregometer. An initial 50 μl sample of blood was withdrawn for counting, collagen was added, and additional samples were withdrawn at 1, 2, 3 and 4 minutes. Aggregation was monitored by noting the decrease in single platelet count. Buffer (no collagen) control were included.
At the end of the four minute incubation for platelet counting, the remainder of each blood sample was allowed to stir for one additional minute. At 5 minutes, 1.0 μl of 19 mg/ml indomethacin (dissolved in dimethylsulfoxide) was added to each sample, resulting in a final indomethacin concentration of 30 ug/ml. The resulting solutions were mixed (15-30 seconds) and cooled on ice. Samples were centrifuged and 150 ul of plasma was removed. The plasma samples were frozen until radioimmunoassay for TXB2. The radioimmunoassay was conducted as previously described at plasma dilutions of 1:20. Two vehicle administered control aminals were run. Groups of at least four animals per test compound were utilized.
The raw results obtained in the RIA from a 0.1 ml sample of 1:20 diluted plasma were corrected to pg/ml in original plasma sample (×200). The R.I.A. values were then normalized for initial platelet count within the blood sample to 5.0×10^8 ml^-1 (range of platelet count in citrated guinea pig whole blood was varied between the limits […] ml^-1). The test and control results were then compared, and inhibition (%) calculated in the normal way. Statistical analysis is again by Student's t-test.

For the compound `CCOC(=O)c1cccc(/C=C(\COCc2ccc(OC)cc2)Cn2ccnc2)c1` [9 (Z-isomer), ethyl 3-[3-(1H-imidazol-1-yl)-2-[[(4-methoxyphenyl)methoxy]methyl]-1Z-propenyl]benzoate], the IC50 on thromboxane synthetase was 11.5 µM. For the compound `CCOC(=O)c1ccc(/C=C(/COCc2ccc(OC)cc2)Cn2ccnc2)cc1` [1 (E-isomer), ethyl 4-[3-(1H-imidazol-1-yl)-2-[[(4-methoxyphenyl)methoxy]methyl]-1E-propenyl]benzoate], the IC50 on thromboxane synthetase turned out to be 0.89 µM.

`CCOC(=O)c1ccc(/C=C(\COCc2ccc(OC)cc2)Cn2ccnc2)cc1` [1 (Z-isomer), ethyl 4-[3-(1H-imidazol-1-yl)-2-[[(4-methoxyphenyl)methoxy]methyl]-1Z-propenyl]benzoate]: on thromboxane synthetase, the IC50 is 0.022 µM. Besides, the “% INHIBITION (plasma TXB2)” value in assay [1] is listed as -45.5%. Consider `CCOC(=O)c1cccc(/C=C(/COCc2ccc(OC)cc2)Cn2ccnc2)c1` [9 (E-isomer), ethyl 3-[3-(1H-imidazol-1-yl)-2-[[(4-methoxyphenyl)methoxy)methyl]-1E-propenyl]-benzoate], for which, at thromboxane synthetase, the IC50 amounted to 403 µM.

`CCOC(=O)CCCCCC=C(COCc1ccc(OC)cc1)Cn1ccnc1` [Example 4, ethyl 9-(1H-imidazol-1-yl)-8-[[(4-methoxyphenyl)methoxy]methyl]-7-nonenoate]: on thromboxane synthetase, the IC50 stood at 9.3 µM.

As to `CCOC(=O)c1ccc(/C=C(\CCCc2ccc(OC)cc2)Cn2ccnc2)cc1` [12 (E-isomer), ethyl 4-[2-[(1H-imidazol-1-yl)-methyl]-5-(4-methoxyphenyl)-1E-pentenyl]benzoate], the IC50 at thromboxane synthetase worked out at 0.15 µM. Besides, the “% INHIBITION (plasma TXB2)” value in assay [1] is given as -92.3%. For `CCOC(=O)c1ccc(/C=C(/COCc2ccc(OC)cc2)Cn2ccnc2)cc1Cl` [10 (E-isomer)], the IC50 at thromboxane synthetase came out at 4.78 µM. In assay [1], the “% INHIBITION (plasma TXB2)” value is recorded as -18.6%. For `COc1ccc(COCC(=CCCCCCC(=O)O)Cn2ccnc2)cc1` [Example 5, 9-(1H-Imidazol-1-yl)-8-[[(4-methoxyphenyl)methoxy]methyl]-7-nonenoic acid], in that order: 4.6 µM and -4.0%. Take `COc1ccc(C=C(COCc2ccc(OC)cc2)Cn2ccnc2)cc1` [Example 7, 1-[3-(4-Methoxyphenyl)-2-[[(4-methoxyphenyl)methoxy]methyl]-2-propenyl]-1H-imidazole]: at thromboxane synthetase, the IC50 is 17.3 µM. In the case of `CCOC(=O)c1ccc(/C=C(/COCc2ccc(OC)cc2)Cn2ccnc2)cc1OC` [11 (E-isomer)], the IC50 at thromboxane synthetase came to 21.8 µM. For the same compound, the “% INHIBITION (plasma TXB2)” value in assay [1] is reported as -36.0%. Consider `COc1ccc(COCC(=CCCCCC(=O)O)Cn2ccnc2)cc1` [Example 6, 8-(1H-Imidazol-1-yl)-7-[[(4-methoxyphenyl)methoxy]methyl]-6-octenoic acid], for which the IC50 at thromboxane synthetase turned out to be 1.4 µM. On the same count and under the same terms, in the case of `CCOC(=O)CCCCCC=C(CCCc1ccc(OC)cc1)Cn1ccnc1` [Example 8, Ethyl 8-[(1H-imidazol-1-yl)methyl]-11-(4-methoxyphenyl)-7-undecenoate] it was 1.8 µM.

Consider `CCOC(=O)c1ccc(/C=C(\COCc2ccc(F)cc2)Cn2ccnc2)cc1` [13 (Z-isomer), ethyl 4-[2-[[(4-fluorophenyl)methoxy]-methyl]-3-(1H-imidazol-1-yl)-1Z-propenyl]benzoate], for which the IC50 at thromboxane synthetase was 0.45 µM. The “% INHIBITION (plasma TXB2)” value in assay [1] was -49.1%.

On to `COc1ccc(COC/C(=C\c2ccc(C(=O)O)cc2)Cn2ccnc2)cc1` [Example 3, 4-[3-(1H-Imidazol-1-yl)-2-[[(4-methoxyphenyl)methoxy]methyl]-1Z-propenyl]benzoic acid], for which the IC50 on thromboxane synthetase was 0.56 µM. In the case of `COc1ccc(COC/C(=C/c2ccc(C(=O)O)cc2)Cn2ccnc2)cc1` [Example 2, 4-[3-(1H-imidazol-1-yl)-2-[[(4-methoxyphenyl)methoxy]methyl]-1E-propenyl]benzoic acid], the IC50 at thromboxane synthetase is 18.2 µM.
